From US20130096067A1, “DROSOPHILA TUMOR STEM CELL MODEL AND USES THEREOF” (priority 2011, published 2013)
Counter-ions that a name gives are not always drawn. Square brackets hold non-standard residues; d marks the D form. Peptide text beside a SMILES is read from it. * marks the point of attachment. Sta = CC(C)C[C@H](N)[C@@H](O)CC(=O)O; Isovaleryl = CC(C)CC(=O)*

Test system: Raf-1^gof intestinal tumors
Details: for Log2 (fold) of luciferase activity relative to DMSO controls / Fold (luciferase activity relative to DMSO controls): ICCB compounds fed in vials to flies with one-day old Raf-1^gof tumors; for Log2 (fold) of luciferase activity relative to DMSO controls / Fold (luciferase activity relative to DMSO controls) / Log2 (fold) (luciferase activity, log2 of the fold difference relative to DMSO controls) / Fold (luciferase activity, fold difference relative to DMSO controls): assessed three days later; for Fold (luciferase activity relative to DMSO controls) / Fold (luciferase activity, fold difference relative to DMSO controls): averaged from multiple wells; for Log2 (fold) (luciferase activity, log2 of the fold difference relative to DMSO controls) / Fold (luciferase activity, fold difference relative to DMSO controls): screen of 480 ICCB compounds in vials, compounds fed to flies with one-day old Raf-1^gof tumors, esg-Gal4 luciferase
Throughout, for Fold (luciferase activity relative to DMSO controls): test concentration or dose not given here.
Throughout, for Fold (luciferase activity, fold difference relative to DMSO controls): test concentration or dose not given here.
Throughout, for Log2 (fold) (luciferase activity, log2 of the fold difference relative to DMSO controls): test concentration or dose not given here.
Throughout, for Log2 (fold) of luciferase activity relative to DMSO controls: test concentration or dose not given here.

O=C1NCN(c2ccccc2)C12CCN(CCCC(c1ccc(F)cc1)c1ccc(F)cc1)CC2 [FLUSPIRILINE]
Log2 (fold) of luciferase activity relative to DMSO controls: −0.192
Fold (luciferase activity relative to DMSO controls): 0.875 fold

CCCCC/C=C\C\C=C/C=C/C=C/[C@@H](SCC(NC(C)=O)C(=O)O)[C@@H](O)CCCC(=O)O (stereo partly shown) [N-ACETYL-LEUKOTRIENE E4]
Log2 (fold) (luciferase activity, log2 of the fold difference relative to DMSO controls): −0.318
Fold (luciferase activity, fold difference relative to DMSO controls): 0.802

CCCCCCCCCCCCCC(=O)N[C@H](C)[C@@H](O)c1ccccc1 [MAPP, D-erythro]
Log2 (fold) (luciferase activity, log2 of the fold difference relative to DMSO controls): −0.266
Fold (luciferase activity, fold difference relative to DMSO controls): 0.832

C/C(=C\c1ccc(C(=O)O)cc1)c1ccc2c(c1)C(C)(C)CCC2(C)C [TTNPB]
Log2 (fold) of luciferase activity relative to DMSO controls: −0.114
Fold (luciferase activity relative to DMSO controls): 0.924 fold

CCCCCCCCCCCCCCCCOC[C@H](COP(=O)([O-])OCC[N+](C)(C)C)OC(C)=O [PAF C16]
Log2 (fold) of luciferase activity relative to DMSO controls: −0.190
Fold (luciferase activity relative to DMSO controls): 0.876 fold

C/C=C1\[C@H]2C=C(C)C[C@]1(N)c1ccc(=O)[nH]c1C2 [Huperzine A [(−)-Huperzine A]]
Log2 (fold) (luciferase activity, log2 of the fold difference relative to DMSO controls): −0.641
Fold (luciferase activity, fold difference relative to DMSO controls): 0.641

CCCC[C@@H](C)[C@@H](OC(=O)C[C@@H](CC(=O)O)C(=O)O)[C@H](C[C@@H](C)C[C@H](O)CCCC[C@@H](O)C[C@H](O)[C@H](C)N)OC(=O)C[C@@H](CC(=O)O)C(=O)O [Fumonisin B1]
Log2 (fold) (luciferase activity, log2 of the fold difference relative to DMSO controls): −0.685
Fold (luciferase activity, fold difference relative to DMSO controls): 0.622

CCCCC/C=C\C[C@@H](/C=C/C=C\C/C=C\CCCC(=O)O)OO [12(S)-HPETE]
Log2 (fold) (luciferase activity, log2 of the fold difference relative to DMSO controls): −0.571
Fold (luciferase activity, fold difference relative to DMSO controls): 0.673

CCCC(=O)Nc1ncnc2c1ncn2[C@@H]1O[C@@H]2COP(=O)(O)O[C@H]2[C@H]1OC(=O)CCC [dibutyrylcyclic AMP]
Log2 (fold) (luciferase activity, log2 of the fold difference relative to DMSO controls): −0.701
Fold (luciferase activity, fold difference relative to DMSO controls): 0.615

CCCCCCCC/C=C\CCCCCCCCOC[C@H](COP(=O)([O-])OCC[N+](C)(C)C)OC(C)=O [PAF C18:1]
Log2 (fold) (luciferase activity, log2 of the fold difference relative to DMSO controls): −0.420
Fold (luciferase activity, fold difference relative to DMSO controls): 0.747

CCCCC/C=C\C/C=C\C/C=C\C/C=C\CCCC(=O)OC(CO)COCCCCCCCCCCCCCCCC (stereo not shown) [1-HEXADECYL-2-ARACHIDONOYL-GLYCEROL]
Log2 (fold) (luciferase activity, log2 of the fold difference relative to DMSO controls): −0.379
Fold (luciferase activity, fold difference relative to DMSO controls): 0.769

COC(=O)[C@@H]1[C@H]2C[C@H]3c4[nH]c5ccccc5c4CCN3C[C@@H]2CC[C@@H]1O [yohimbine]
Log2 (fold) of luciferase activity relative to DMSO controls: 0.061
Fold (luciferase activity relative to DMSO controls): 1.043 fold

CCCCC/C=C\C/C=C\C/C=C\CCCCC(=O)O [GAMMA-LINOLENIC ACID (18:3 n-6)]
Log2 (fold) of luciferase activity relative to DMSO controls: −0.145
Fold (luciferase activity relative to DMSO controls): 0.904 fold

N#CC(=C(/N)Sc1ccccc1N)/C(C#N)=C(/N)Sc1ccccc1N [U-0126]
Log2 (fold) of luciferase activity relative to DMSO controls: −0.023
Fold (luciferase activity relative to DMSO controls): 0.984 fold

O=C(O)c1ccc(/C2=C3\C=CC(=N3)/C(c3ccc(C(=O)O)cc3)=c3/cc/c4[n]3[Mn]([Cl])[n]3c2ccc3/C(c2ccc(C(=O)O)cc2)=C2/C=CC(=N2)\C=4c2ccc(C(=O)O)cc2)cc1 [MnTBAP]
Log2 (fold) (luciferase activity, log2 of the fold difference relative to DMSO controls): −0.245
Fold (luciferase activity, fold difference relative to DMSO controls): 0.844

NC(=NCc1ccccc1)NC(=O)c1nc(Cl)c(N)nc1N [BENZAMIL]
Log2 (fold) of luciferase activity relative to DMSO controls: 0.006
Fold (luciferase activity relative to DMSO controls): 1.004 fold

N#CC(C#N)=Cc1ccc([N+](=O)[O-])c(O)c1 [tyrphostin AG-126]
Log2 (fold) of luciferase activity relative to DMSO controls: −0.085
Fold (luciferase activity relative to DMSO controls): 0.943 fold

C[C@@H]1C[C@H]2[C@@H]3CCC4=CC(=O)C=C[C@]4(C)[C@@]3(F)[C@@H](O)C[C@]2(C)[C@@]1(O)C(=O)CO [dexamethasone]
Log2 (fold) (luciferase activity, log2 of the fold difference relative to DMSO controls): −0.245
Fold (luciferase activity, fold difference relative to DMSO controls): 0.844

C=C1/C(=C\C=C2/CCC[C@]3(C)[C@@H]([C@H](C)CCCC(C)(C)O)CC[C@@H]23)C[C@@H](O)C[C@@H]1O [1,25-DIHYDROXYVITAMIN D3]
Log2 (fold) of luciferase activity relative to DMSO controls: 0.677
Fold (luciferase activity relative to DMSO controls): 1.599 fold

CC(C)CC(=O)N[C@H](C(=O)N[C@H](C(=O)N[C@@H](CC(C)C)[C@@H](O)CC(=O)N[C@@H](C)C(=O)N[C@@H](CC(C)C)[C@@H](O)CC(=O)O)C(C)C)C(C)C [pepstatin] (Isovaleryl-VV[Sta]A[Sta]-OH)
Log2 (fold) (luciferase activity, log2 of the fold difference relative to DMSO controls): −0.491
Fold (luciferase activity, fold difference relative to DMSO controls): 0.711

CCCCCCCCCCCCCCC(F)C(=O)O (stereo not shown) [2-FLUOROPALMITIC ACID]
Log2 (fold) of luciferase activity relative to DMSO controls: 0.051
Fold (luciferase activity relative to DMSO controls): 1.036 fold

C/C(O)=C(\C#N)C(=O)Nc1cc(Br)ccc1Br [LFM-A13]
Log2 (fold) (luciferase activity, log2 of the fold difference relative to DMSO controls): −0.417
Fold (luciferase activity, fold difference relative to DMSO controls): 0.749

KN-62
Log2 (fold) (luciferase activity, log2 of the fold difference relative to DMSO controls): −0.513
Fold (luciferase activity, fold difference relative to DMSO controls): 0.701

O=C(NCC1CCCCN1)c1cc(OCC(F)(F)F)ccc1OCC(F)(F)F (stereo not shown) [FLECAINIDE]
Log2 (fold) (luciferase activity, log2 of the fold difference relative to DMSO controls): −0.253
Fold (luciferase activity, fold difference relative to DMSO controls): 0.839

CCCCC/C=C\CC1OC1C/C=C\C/C=C\CCCC(=O)O (stereo not shown) [11,12-EPOXYEICOSATRIENOIC ACID]
Log2 (fold) of luciferase activity relative to DMSO controls: −0.052
Fold (luciferase activity relative to DMSO controls): 0.965 fold

COc1ccc(C2CNC(=O)C2)cc1OC1CCCC1 (stereo not shown) [Rolipram]
Log2 (fold) (luciferase activity, log2 of the fold difference relative to DMSO controls): −0.414
Fold (luciferase activity, fold difference relative to DMSO controls): 0.750

CC[C@@H]1/C=C/C=C/C[C@H](C)[C@H](O)[C@](C)(O)C(=O)[C@H](C)[C@@H](O)[C@H](C)C(=O)[C@H](C)[C@@H](O)[C@H](C)/C=C/C(=O)O[C@H]2[C@@H](C)[C@@H](CC1)O[C@@]1(CC[C@@H](C)[C@@H](C[C@H](C)O)O1)[C@@H]2C [oligomycin A, reference compound]
Fold (Table 3 summary of hits, Screen ICCB, luciferase relative to DMSO, fed three consecutive days in vials): 0.457 fold
Log2 (fold) (luciferase activity, log2 of the fold difference relative to DMSO controls): −1.131
Fold (luciferase activity, fold difference relative to DMSO controls): 0.457

COC(=O)C1=C(C)NC(C)=C(C(=O)OCCSc2ccccc2)C1C (stereo not shown) [PCA 4248]
Log2 (fold) of luciferase activity relative to DMSO controls: −0.180
Fold (luciferase activity relative to DMSO controls): 0.883 fold

CCOc1ccc(-c2nc3ccc(-c4nc5ccc(N6CCN(C)CC6)cc5[nH]4)cc3[nH]2)cc1
Log2 (fold) (luciferase activity, log2 of the fold difference relative to DMSO controls): −0.592
Fold (luciferase activity, fold difference relative to DMSO controls): 0.663

Nc1cc(N2CCCCC2)nc(N)[n+]1OS(=O)(=O)[O-] [MINOXIDIL SULFATE]
Log2 (fold) (luciferase activity, log2 of the fold difference relative to DMSO controls): −0.417
Fold (luciferase activity, fold difference relative to DMSO controls): 0.749

CCCCC[C@H](O)/C=C/[C@@H]1[C@@H](C/C=C\CCCC(=O)O)[C@H](O)C[C@H]1O [9b,11a-PROSTAGLANDIN F2]
Log2 (fold) of luciferase activity relative to DMSO controls: 0.062
Fold (luciferase activity relative to DMSO controls): 1.044 fold

CC1(O)CC23CC(O)C4(O)C(CC(O)C4(C)C)C(C)(O)C2CCC1C3O (stereo not shown) [GR[…]]
Log2 (fold) (luciferase activity, log2 of the fold difference relative to DMSO controls): −0.553
Fold (luciferase activity, fold difference relative to DMSO controls): 0.682

C=C[C@H]1C[N@@]2CC[C@H]1C[C@@H]2[C@@H](O)c1ccnc2ccc(OC)cc12 [QUINIDINE]
Log2 (fold) (luciferase activity, log2 of the fold difference relative to DMSO controls): −0.351
Fold (luciferase activity, fold difference relative to DMSO controls): 0.784

CCCCCC(O)CCCC(=O)O (stereo not shown) [5-HYDROXYDECANOATE]
Log2 (fold) (luciferase activity, log2 of the fold difference relative to DMSO controls): −0.357
Fold (luciferase activity, fold difference relative to DMSO controls): 0.781

O=C(Nc1ccccc1)c1cc([N+](=O)[O-])ccc1Cl [GW-9662]
Log2 (fold) (luciferase activity, log2 of the fold difference relative to DMSO controls): −0.581
Fold (luciferase activity, fold difference relative to DMSO controls): 0.669

O=S(=O)(c1cccc2cnccc12)N1CCCNCC1 [HA1077]
Log2 (fold) (luciferase activity, log2 of the fold difference relative to DMSO controls): −0.326
Fold (luciferase activity, fold difference relative to DMSO controls): 0.798

CC(C)c1cccc(=O)c(O)c1 [Hinokitiol]
Log2 (fold) (luciferase activity, log2 of the fold difference relative to DMSO controls): −0.240
Fold (luciferase activity, fold difference relative to DMSO controls): 0.847

CC(C)(C)c1cc(/C=C(\C#N)C(N)=S)cc(C(C)(C)C)c1O [AG-879]
Log2 (fold) of luciferase activity relative to DMSO controls: 0.902
Fold (luciferase activity relative to DMSO controls): 1.869 fold

COc1ccc2c(c1)c(CC(=O)O)c(C)n2C(=O)c1ccc(Cl)cc1 [indomethacin]
Log2 (fold) (luciferase activity, log2 of the fold difference relative to DMSO controls): −0.549
Fold (luciferase activity, fold difference relative to DMSO controls): 0.683
